Assays:
[1] = system: Mitogen-Activated Protein Kinase (MAPK or ERK); experiment: MAPK (ERK phosphorylation) activity screen of BRaf inhibitors of Formula (I) vs. reference C-1; format: cell-based; details: MAPK activity of compound relative to reference compound C-1
Text: The BRaf inhibitors of this disclosure were screened for phosphorylation of ERK (MAPK).
(§1) The chemical structures, synthetic schemes and the synthetic procedures for each of the compounds of Formula (I) of this disclosure, as well as their MAPK (ERK) and the phototoxicity studies of LUT-014 were detailed in Shelach N., U.S. Patent Application Publication No. U.S.2019389862, which is incorporated herein in its entirety.

[2] = Phototoxicity: Photo-Irritation Factor (PIF) or Mean Photo Effect (MPE); format: cell-based
Method: The level of phototoxicity was determined by measuring a Photo-Irritation Factor (PIF) or a Mean Photo Effect (MPE) of one of the compounds of Formula (I), namely LUT-014 (R=3-(trifluoromethoxy)phenyl).
as §1

wound = details: given alone; cited from earlier work

Molecule	LUT/C1 MAPK Ratios [1]	other results
Cc1ccc2c(Nc3ccc(I)cc3F)nccc2c1Nc1ncccc1-c1ncnc2nc[nH]c12 [LUT-016]	2.0	
C#Cc1cccc(Nc2nccc3c(Nc4ncccc4-c4ncnc5nc[nH]c45)c(C)ccc23)c1 [LUT-012]	0.7	
Cc1ccc2c(Nc3cc(C(C)(C)C)nn3C)nccc2c1Nc1ncccc1-c1ncnc2nc[nH]c12 [LUT-013]	3.4	
Becaplermin (protein, UniProt P01127 82-190, looked up, recombinant human platelet-derived growth factor, FDA-approved for promoting healing of diabetic foot ulcers) Platelet-derived growth …: SLGSLTIAEPAMIAECKTRTEVFEISRRLIDRTNANFLVWPPCVEVQRCSGCCNNRNVQCRPTQVQLRPVQVRKIEIVRKKPIFKKATVTLEDHLACKCETVAAARPVT		effect in promoting wound healing (wound): only a modest beneficial effect

Now from value to molecule, other results behind:

LUT/C1 MAPK Ratios [1]	Molecule	other results
3.5	Cc1ccc2c(Nc3ccc(Cl)c(C(F)(F)F)c3)nccc2c1Nc1ncccc1-c1ncnc2nc[nH]c12 [LUT-017]	
2.1	Cc1ccc2c(Nc3ccc(F)c(Cl)c3)nccc2c1Nc1ncccc1-c1ncnc2[nH]cnc12 [LUT-015]	
2.9	Cc1ccc2c(Nc3cccc(OC(F)(F)F)c3)nccc2c1Nc1ncccc1-c1ncnc2[nH]cnc12 [LUT-014]	Photo-Irritation Factor (PIF) [2]: less than 2; phototoxicity [2]: low phototoxicity
1.0	Cc1ccc2c(Nc3cccc(S(N)(=O)=O)c3)nccc2c1Nc1ncccc1-c1ncnc2[nH]cnc12 [LUT-020]	

— patent publication US20240122933A1, “USE OF ISOQUINOLINE-1,5-DIAMINES FOR WOUND HEALING” (Lutris Pharma Ltd., priority 2021, published 2024)
